Experimental data from patent publication US9643957B2, “Heterocyclic compounds having cholesterol 24-hydroxylase activity” (TAKEDA PHARMACEUTICAL COMPANY LIMITED, priority 2012, dated 2017).

Assays:
human CH24H = target: T1, human CH24H (Homo sapiens, UniProt Q9Y6A2); assay: Measurement of CH24H inhibitory activity (24-HC produced from [14C] cholesterol by human CH24H lysate); type: biochemical; conditions: 1 μM test compound, [14C] cholesterol 15 μM, 37° C. for 5 hr, read-out: Inhibitory Rate in 1 μM (%)
T1 construct: Using Full-Length Mammalian Gene Collection No. 4819975 (Invitrogen) as a template; made in house; host or cells: FreeStyle 293-F cells, transient transfection with pcDNA3.1(+)/hCH24H; lysate supernatant, not purified
T1 sequence (Q9Y6A2 whole entry): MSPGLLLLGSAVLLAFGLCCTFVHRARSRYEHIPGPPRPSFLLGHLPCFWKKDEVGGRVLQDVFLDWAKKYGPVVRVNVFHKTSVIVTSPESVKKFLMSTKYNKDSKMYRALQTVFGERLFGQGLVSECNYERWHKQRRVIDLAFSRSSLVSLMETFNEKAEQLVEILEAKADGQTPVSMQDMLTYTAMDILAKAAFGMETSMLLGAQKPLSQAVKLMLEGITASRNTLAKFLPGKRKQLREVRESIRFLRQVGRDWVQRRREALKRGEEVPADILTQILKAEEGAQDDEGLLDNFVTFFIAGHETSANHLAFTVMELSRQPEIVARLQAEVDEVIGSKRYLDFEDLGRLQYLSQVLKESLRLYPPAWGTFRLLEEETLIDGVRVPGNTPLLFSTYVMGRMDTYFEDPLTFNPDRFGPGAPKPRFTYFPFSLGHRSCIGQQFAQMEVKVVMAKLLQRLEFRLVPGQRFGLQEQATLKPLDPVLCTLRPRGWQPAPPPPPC
In short: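 Human CH24H lysate from FreeStyle 293 cells was incubated with compound and 15 μM [14C]cholesterol in 50 mM potassium phosphate pH 7.4 with 0.1% BSA, for 5 h at 37 °C. The 24-HC formed was extracted, separated by silica TLC and quantified by radioactivity. % inhibition was calculated versus no-compound reactions.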

24-HC in the brain = assay: Quantification test of 24-HC in mouse brain after repeated oral administration; type: in vivo; conditions: 30 mg/kg orally once a day for 3 days, female C57BL/6N mice, brain 24-HC at 16 hours after the third administration, relative to control group, read-out: Decreasing Rate in 30 mg/kg (%)
Method: Animals used were 6-week-old female C57BL/6N mice (3 mice/group). A test compound was suspended in a 0.5% aqueous methylcellulose [133-14255 WAKO] solution (1 mg/mL). The body weight of the mice was measured, and the solution was forcibly administered orally and repeatedly once a day for 3 days. At 16 hours after the third administration, half of the brain was harvested, and the amount of 24-HC was measured.
The wet weight of the brain was measured, and the brain was homogenized with 4-fold amount of saline. This solution was used as a brain extract. The 24-HC in the brain extract was extracted with an acetonitrile solution (98% acetonitrile, 1.98% methanol, 0.02% formic acid), and quantified by HPLC. The average value of 24-HC amount was calculated and the results are shown in relative values with the control group as 100%.

inhibition at 1 µM (human CH24H) [%] | SMILES | inhibition in vivo at 30 mg/kg (24-HC in the brain) [%]
96 | N#C[C@H]1CCCN1C(=O)C1CCN(c2cnccc2-n2cc(Cl)cn2)CC1 [Example 33, (2R)-1-((1-(4-(4-chloro-1H-pyrazol-1-yl)pyridin-3-yl)piperidin-4-yl)carbonyl)pyrrolidine-2-carbonitrile] | 49
81 | Cc1cnn(-c2ccncc2N2CCC(C(=O)N3CCC[C@@H]3C(N)=O)CC2)c1 [Example 124, 1-((1-(4-(4-methyl-1H-pyrazol-1-yl)pyridin-3-yl)piperidin-4-yl)carbonyl)-D-prolinamide] | 59
79 | Cc1cnn(-c2ccncc2N2CCC(C(=O)N3CCC[C@]3(C)C#N)CC2)c1 [Example 127, (2R)-2-methyl-1-((1-(4-(4-methyl-1H-pyrazol-1-yl)pyridin-3-yl)piperidin-4-yl)carbonyl)pyrrolidine-2-carbonitrile] | 44
